Data published in patent publication US20230173018A1, “CASPOFUNGIN DERIVATIVES AND ASSAYS FOR EVALUATING ANTIFUNGAL TREATMENT EFFICACY” (priority 2020, published 2023).
Like-named read-outs stand apart in the source and are kept apart here.

Columns and labels:
Type in all cases: cell-based
[1] = tested on: C. albicans T-2074 (DP-122); experiment: microbe, parasite or virus in culture
From the text: (§1) The antifungal activities of compounds 1a, 1 and 2 (collectively: caspofungin derivatives) were compared to that of caspofungin and CSF-BOD using a panel of 49 C. albicans and C. glabrata strains (Tables 1 and 2). The panel included ATCC strains and clinical isolates as well a collection of caspofungin-responsive strains and their corresponding isogenic caspofungin-resistant derivatives, constructed by introducing point mutations within and near the defined hotspots in the FKS1 and/or FKS2 genes of the GS complex. Minimal inhibitory concentration (MIC) values for all strains were determined using the broth double dilution method and are summarized in FIG. 2 and Table 2. […] The clinical breakpoints (threshold) for caspofungin-resistance in C. albicans and C. glabrata are 1 μg/mL and 0.5 μg/mL, respectively.

C. glabrata TGL00294 = experiment: microbe, parasite or virus in culture
From the text: as §1

C. glabrata TGL00258 = experiment: microbe, parasite or virus in culture
From the text: as §1

[2] = tested on: C. albicans DPL1015 (DP-A15); experiment: microbe, parasite or virus in culture
From the text: as §1

C. glabrata TGL00293 = experiment: microbe, parasite or virus in culture
From the text: as §1

[3] = tested on: C. albicans T-2069 (DP-85); experiment: microbe, parasite or virus in culture
From the text: as §1

[4] = tested on: C. albicans T-2068 (DP-C42); experiment: microbe, parasite or virus in culture
From the text: as §1

C. glabrata TGL00277 = experiment: microbe, parasite or virus in culture
From the text: as §1

C. glabrata TGL00265 = experiment: microbe, parasite or virus in culture
From the text: as §1

C. glabrata TGL00291 = experiment: microbe, parasite or virus in culture
From the text: as §1

[5] = tested on: C. glabrata T-985 (11-076); experiment: microbe, parasite or virus in culture; settings: strain no. 49, T-985 (11-076), clinical isolate
From the text: as §1

C. glabrata DPL1086 = experiment: microbe, parasite or virus in culture
From the text: as §1

C. glabrata TGL00056 = experiment: microbe, parasite or virus in culture
From the text: as §1

C. glabrata TGL00054 = experiment: microbe, parasite or virus in culture
From the text: as §1

C. glabrata ATCC 66032 = experiment: MIC, broth double dilution; settings: strain no. 40, C. glabrata ATCC 66032
From the text: as §1

C. glabrata CST34 = experiment: MIC, broth double dilution; settings: strain no. 21, C. glabrata CST34 (parental)
From the text: as §1

C. glabrata EF1620 = experiment: MIC, broth double dilution; settings: strain no. 31, C. glabrata EF1620
From the text: as §1

C. glabrata T-192 (1775) = experiment: MIC, broth double dilution
From the text: as §1

C. albicans SC5314 = experiment: MIC, broth double dilution; settings: strain no. 1, C. albicans SC5314, WT
From the text: as §1

C. albicans ATCC 10231 = experiment: MIC, broth double dilution
From the text: as §1

C. glabrata ATCC 90030 = experiment: MIC, broth double dilution
From the text: as §1

C. albicans SN152 = experiment: MIC, broth double dilution; settings: strain no. 5, C. albicans SN152
From the text: as §1

C. glabrata ATCC 2001 = experiment: MIC, broth double dilution
From the text: as §1

[6] = tested on: C. glabrata T-983 (11-079); experiment: MIC, broth double dilution
From the text: as §1

[7] = tested on: C. glabrata T-191 (11-331); experiment: MIC, broth double dilution
From the text: as §1

C. glabrata ATCC 15126 = experiment: MIC, broth double dilution
From the text: as §1

[8] = tested on: C. glabrata T-193 (11-282); experiment: MIC, broth double dilution
From the text: as §1

[9] = tested on: C. glabrata T-984 (11-078); experiment: MIC, broth double dilution
From the text: as §1

C. albicans ATCC 24433 = experiment: MIC, broth double dilution; settings: strain no. 6, C. albicans ATCC 24433
From the text: as §1

C. glabrata CST109 = experiment: MIC, broth double dilution; settings: strain no. 18, C. glabrata CST109 (parental)
From the text: as §1

[10] = tested on: C. glabrata T-982 (11-181); experiment: MIC, broth double dilution
From the text: as §1

[11] = tested on: C. glabrata T-190 (11-304); experiment: MIC, broth double dilution
From the text: as §1

C. glabrata BG2 = experiment: MIC, broth double dilution; settings: strain no. 34, C. glabrata BG2
From the text: as §1

C. albicans BWP17 = experiment: MIC, broth double dilution; settings: strain no. 9, BWP17, parental RM1000
From the text: as §1

[12] = Nakaseomyces glabratus, read-out: MIC
[13] = Nakaseomyces glabratus, ATCC90030
[14] = Candida albicans, read-out: MIC

Measured: MIC

CC[C@H](C)C[C@H](C)CCCCCCCCC(=O)N[C@H]1C[C@@H](O)[C@@H](NCCN)NC(=O)[C@@H]2[C@@H](O)CCN2C(=O)[C@H]([C@H](O)CCN)NC(=O)[C@H]([C@H](O)[C@@H](O)c2ccc(O)cc2)NC(=O)[C@@H]2C[C@@H](O)CN2C(=O)[C@H]([C@@H](C)O)NC1=O [Caspofungin]
> 64 µg/mL: C. glabrata TGL00258; Nakaseomyces glabratus, TGL00258 | C. glabrata TGL00293; Nakaseomyces glabratus, TGL00293 | C. glabrata TGL00277; Nakaseomyces glabratus, TGL00277 | C. glabrata TGL00265; Nakaseomyces glabratus, TGL00265 | C. glabrata TGL00291; Nakaseomyces glabratus, TGL00291 | C. glabrata TGL00056; Nakaseomyces glabratus, TGL00056 | C. glabrata TGL00054; Nakaseomyces glabratus, TGL00054
0.031 µg/mL: C. albicans SC5314; [14] | C. albicans SN152; [14] | C. albicans BWP17; [14]
2 µg/mL: C. glabrata DPL1086; [13]
0.125 µg/mL: [5]; [12] | C. glabrata ATCC 66032; Nakaseomyces glabratus, ATCC66032, read-out: MIC | C. albicans ATCC 10231; Candida albicans, ATCC10231 | C. glabrata ATCC 90030; [13] | C. glabrata ATCC 2001; Nakaseomyces glabratus, ATCC2001 | C. glabrata ATCC 15126; Nakaseomyces glabratus, ATCC15126 | [8]; Nakaseomyces glabratus | C. glabrata CST109; [12] | C. glabrata BG2; [12]
16 µg/mL: C. glabrata TGL00294; Nakaseomyces glabratus, TGL00294 | [3]; Candida albicans | [4]; Candida albicans, SC5314
1 µg/mL: [1]; Candida albicans
0.063 µg/mL: C. glabrata CST34; [12] | C. glabrata EF1620; [12] | C. glabrata T-192 (1775); Nakaseomyces glabratus | [6]; Nakaseomyces glabratus | [7]; Nakaseomyces glabratus | [9]; Nakaseomyces glabratus | C. albicans ATCC 24433; Candida albicans, ATCC24433, read-out: MIC | [10]; Nakaseomyces glabratus | [11]; Nakaseomyces glabratus
4 µg/mL: [2]; Candida albicans, SC5314

CC[C@H](C)C[C@H](C)CCCCCCCCC(=O)N[C@H]1C[C@@H](O)[C@@H](NCCN)NC(=O)[C@@H]2[C@@H](O)CCN2C(=O)[C@H]([C@H](O)CCN)NC(=O)[C@H]([C@H](O)[C@@H](O)c2ccc(OCc3cn(CCCNC(=O)c4ccc(-c5c6ccc(=[N+](C)C)cc-6oc6cc(N(C)C)ccc56)c(C(=O)[O-])c4)nn3)cc2)NC(=O)[C@@H]2C[C@@H](O)CN2C(=O)[C@H]([C@@H](C)O)NC1=O [Compound 1]
8 µg/mL: C. glabrata DPL1086; strain no. 17, DPL1086, parental ATCC 90030, FKS1 mutant HS1-S629P
>64 µg/mL: C. glabrata TGL00294; strain no. 38, TGL00294, parental BG2, FKS mutant | C. glabrata TGL00258; strain no. 25, TGL00258, parental CST34, FKS mutant | C. glabrata TGL00293; strain no. 37, TGL00293, parental BG2, FKS mutant | C. glabrata TGL00277; strain no. 33, TGL00277, parental EF1620, FKS mutant | C. glabrata TGL00265; strain no. 30, TGL00265, parental CST78, FKS mutant | C. glabrata TGL00291; strain no. 36, TGL00291, parental BG2, FKS mutant | C. glabrata TGL00056; strain no. 22, TGL00056, parental CST34, FKS mutant | C. glabrata TGL00054; strain no. 19, TGL00054, parental CST109, FKS2 mutant
16 µg/mL: [1]; strain no. 12, T-2074 (DP-122), clinical isolate, FKS1 HS1-P649H mutation | [2]; strain no. 2, DPL1015 (DP-A15), parental SC5314, FKS1 mutant HS1-S645S/P
64 µg/mL: [3]; strain no. 14, T-2069 (DP-85), clinical isolate, FKS1 HS1-S645F mutation | [4]; strain no. 4, T-2068 (DP-C42), parental SC5314, FKS1 HS1-F641S mutation
1 µg/mL: [5] | C. glabrata ATCC 66032 | C. glabrata ATCC 90030; strain no. 16, C. glabrata ATCC 90030, WT | C. glabrata ATCC 2001; strain no. 39, C. glabrata ATCC 2001 | C. glabrata ATCC 15126; strain no. 41, C. glabrata ATCC 15126 | [8]; strain no. 45, T-193 (11-282), clinical isolate | C. glabrata CST109 | C. glabrata BG2
0.25 µg/mL: C. albicans SC5314 | C. albicans SN152 | C. albicans BWP17
0.5 µg/mL: C. glabrata CST34 | C. glabrata EF1620 | C. glabrata T-192 (1775); strain no. 44, T-192 (1775), clinical isolate | C. albicans ATCC 10231; strain no. 11, C. albicans ATCC 10231 | [6]; strain no. 47, T-983 (11-079), clinical isolate | [7]; strain no. 43, T-191 (11-331), clinical isolate | [9]; strain no. 48, T-984 (11-078), clinical isolate | C. albicans ATCC 24433 | [10]; strain no. 46, T-982 (11-181), clinical isolate | [11]; strain no. 42, T-190 (11-304), clinical isolate
